Data: publication PMC6767919 (European journal of pharmacology, 2019)
Marks after values point to notes of the source that are not given here.

Experiments:
[1] = biological target: T1, human 5-HT2C–INI (wild-type, WT) receptor (Homo sapiens, UniProt P28335); assay type: cell-based
T1 sequence (P28335 33-458): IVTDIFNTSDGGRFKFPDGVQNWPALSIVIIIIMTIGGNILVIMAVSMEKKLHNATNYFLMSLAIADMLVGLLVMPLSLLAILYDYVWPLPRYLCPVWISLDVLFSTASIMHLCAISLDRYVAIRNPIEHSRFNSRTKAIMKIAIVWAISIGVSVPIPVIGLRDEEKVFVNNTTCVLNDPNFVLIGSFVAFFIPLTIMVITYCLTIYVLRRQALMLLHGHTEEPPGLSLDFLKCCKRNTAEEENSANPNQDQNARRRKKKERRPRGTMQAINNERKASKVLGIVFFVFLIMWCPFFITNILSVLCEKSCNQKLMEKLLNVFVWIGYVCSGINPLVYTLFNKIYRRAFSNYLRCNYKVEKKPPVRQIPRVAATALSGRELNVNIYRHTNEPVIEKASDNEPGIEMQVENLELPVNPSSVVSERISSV

[2] = biological target: T2, 5-HT2C receptor (Homo sapiens, UniProt P28335); experiment: Inverse agonist reduction of basal 5-HT2C-mediated IP production; assay type: cell-based; conditions: CHO-K1 cells; basal 5-HT2C-mediated IP production after 20 h of vehicle; n = 3
T2 sequence (P28335 33-458): T1 sequence (P28335 33-458)

[3] = biological target: T3, 5-HT2C-INI receptor (Homo sapiens, UniProt P28335); experiment: DiscoverX PathHunter β-arrestin recruitment to the 5-HT2C receptor; assay type: cell-based; conditions: for Emax (% 5-HT), β-arrestin recruitment / pEC50, β-arrestin recruitment: U2OS cells stably expressing 5-HT2C-INI, agonist 2 h, n = 3
T3 sequence (P28335 33-458): T1 sequence (P28335 33-458)

[4] = biological target: T2, 5-HT2C receptor; conditions: ref Schlag et al., 2004; cited from earlier work
[5] = biological target: T2, 5-HT2C receptor; experiment: Inverse agonist sensitization of 5-HT2C receptor IP signaling; assay type: cell-based; conditions: pretreatment for 8 h or less; data not shown
[6] = Solubility in the desensitization assay; assay type: physicochemical
[7] = biological target: T4, 5-HT2C receptor (WT) (Homo sapiens, UniProt P28335); assay type: cell-based
T4 sequence (P28335 33-458): T1 sequence (P28335 33-458)

[8] = biological target: T2, 5-HT2C receptor; experiment: Effect of PKC inhibition on 5-HT-induced 5-HT2C receptor desensitization; conditions: 10 μM chelerythrine; data not shown
[9] = biological target: PKC; conditions: read-out: Ki for PKC; ref Herbert et al., 1990; Absolinova et al., 2010; cited from earlier work

SMILES	Emax (% 5-HT), inositol phosphate production [1]	agonist efficacy class relative to 5-HT, IP production [1]	pEC50, inositol phosphate production [1]	Imax (% decrease from basal), inositol phosphate reduction [2]	Emax (% 5-HT), β-arrestin recruitment [3]	also measured
COc1cc(CC(C)N)c(OC)cc1I (racemic) [DOI, (±) 2,5-dimethoxy-4-iodoamphetamine]	82 ± 4 % 5-HT	full agonists	8.32 ± 0.10	–	–	–
CN(C)[C@@H]1Cc2ccccc2[C@@H](C2CCCCC2)C1 (relative stereo) [CAT, (2S,4R)-(−)-trans-4-cyclohexyl-N,N-dimethyl-1,2,3,4-tetrahydronaphthalen-2-amine]	–	–	–	26 ± 4 % decrease from basal	–	pIC50, inositol phosphate reduction [2]: 7.17 ± 0.21
CN(C)[C@@H]1Cc2ccccc2[C@@H](c2cccc(Br)c2)C1 (relative stereo) [MBP, (2S,4R)-(−)-trans-4-(3’[meta]-bromophenyl)-N,N-dimethyl-1,2,3,4-tetrahydronaphthalen-2-amine]	73 ± 4^a % 5-HT	partial agonists	7.76 ± 0.04	–	7 ± 4^a % 5-HT	effect on 5-HT2C receptor β-arrestin recruitment (in words) [3]: negligible effects; pEC50, β-arrestin recruitment [3]: 6.84 ± 0.10^a
CN(C)[C@@H]1Cc2ccccc2[C@@H](c2cccc(C(F)(F)F)c2)C1 (relative stereo) [MFP, (2S,4R)-(−)-trans-4-(3’[meta]-trifluoromethylphenyl)-N,N-dimethyl-1,2,3,4-tetrahydronaphthalene-2-amine]	–	–	–	25 ± 3 % decrease from basal	–	pIC50, inositol phosphate reduction [2]: 7.62 ± 0.10
CN(C)[C@@H]1Cc2ccccc2[C@@H](c2ccccc2)C1 (relative stereo) [PAT, (2S,4R)-(−)-trans-4-phenyl-N,N-dimethyl-1,2,3,4-tetrahydronaphthalen-2-amine]	50 ± 1^a % 5-HT	–	–	–	–	–
C[C@H](N)Cn1ccc2cc(F)c(Cl)cc21 [Ro 60–0175]	99 ± 6 % 5-HT	full agonists	8.30 ± 0.05	–	92 ± 4 % 5-HT	pEC50, β-arrestin recruitment [3]: 7.86 ± 0.11
Cn1ccc2cc3c(cc21)CCN3C(=O)Nc1cccnc1 [SB 206553]	–	–	–	32 ± 5 % decrease from basal	–	sensitization of 5-HT2C receptors after 30 min pretreatment [4]: insufficient to sensitize; sensitization of the 5-HT2C receptor after short pretreatment [5]: does not sensitize
O=C1Nc2cc(Cl)c(Cl)cc2N2CCNCC12 (stereo not drawn) [WAY-161503]	100 ± 2 % 5-HT	full agonists	8.07 ± 0.08	–	–	–
O=C1CCc2ccc(OCCCCN3CCN(c4cccc(Cl)c4Cl)CC3)cc2N1 [aripiprazole]	40 ± 4^a % 5-HT	–	–	–	8 ± 1^a % 5-HT	effect on 5-HT2C receptor β-arrestin recruitment (in words) [3]: negligible effects; solubility in the desensitization assay [6]: low solubility; desensitization of 5-HT2C-PLC signaling (in words) [7]: did not desensitize
COc1ccc2c(c[n+](C)c3c4cc5c(cc4ccc23)OCO5)c1OC [chelerythrine]	–	–	–	–	–	effect of chelerythrine on 5-HT-induced IP production in non-desensitized cells [8]: no effect; Ki [9]: 700 nM
C[C@H]1CNCCc2ccc(Cl)cc21 [lorcaserin]	100 ± 1 % 5-HT	–	–	–	118 ± 5^a % 5-HT	–
Clc1cccc(N2CCNCC2)c1 [mCPP, 1-(3-chlorophenyl)piperazine]	88 ± 10 % 5-HT	–	–	–	–	–
CN1C[C@@H](NS(=O)(=O)N(C)C)C[C@@H]2c3cccc4c3c(cn4C)C[C@H]21 [mesulergine]	–	–	–	17 ± 2 % decrease from basal	–	–
